pIC50, pKd: −log10 of the molar value. Counter-ions that a name gives are not always drawn.
Assays:
human RORγt LBD = molecular target: T1, human RORγt LBD (Homo sapiens, UniProt P51449); assay: RORγt (LBD) Reporter Assay (GAL4 luciferase, HEK293T cells); assay type: cell-based; conditions: for inhibition at 6 µM: HEK-293T; for pIC50: compounds for 24 hours
T1 construct: expressed in transfected cells; host or cells: HEK293T
T1 sequence (P51449 258-518): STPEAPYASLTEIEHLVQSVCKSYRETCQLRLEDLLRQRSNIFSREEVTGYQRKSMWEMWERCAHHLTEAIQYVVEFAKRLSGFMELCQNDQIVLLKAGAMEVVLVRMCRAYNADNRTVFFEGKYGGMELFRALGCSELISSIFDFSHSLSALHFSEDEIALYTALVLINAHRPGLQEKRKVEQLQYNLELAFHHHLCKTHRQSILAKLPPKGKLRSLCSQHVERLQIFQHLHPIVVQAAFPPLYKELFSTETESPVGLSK
Description: Compounds were assessed for RORgt functional modulation using either the RORgt ligand binding domain (LBD) reporter assay, or the RORgt full-length (FL) reporter assay.
A reporter assay was used to test functional activity of RORγt modulatory compounds on transcriptional activation driven by the RORγt LBD. Cells used in the assay were co-transfected with two constructs. The first construct, pBIND-RORγt LBD, contained the wild type human RORγt LBD fused to the DNA binding domain of the GAL4 protein. The second construct, pGL4.31 (Promega Cat no. C935A), contained multiple GAL4 responsive DNA elements upstream of firefly luciferase. […] The mutant construct was called pBIND-RORγt-AF2.
The pBIND vector contains the GAL4 DNA Binding Domain (GAL4 DBD) and the renilla luciferase gene under control of the SV40 promoter. Renilla luciferase expression serves as a control for transfection efficiency and cell viability.
The reporter assay was performed by transiently transfecting HEK293T cells with 5 µg of pBIND-RORγt LBD or pBIND-RORγt LBD-AF2 and 5 µg pGL4.31 (Promega Cat no. C935A) using Fugene 6 (Invitrogen Cat no. E2691) at a 1:6 ratio of DNA: Fugene 6 in a T-75 flask in which cells were at least 80% confluent. Twenty four hours after bulk transfection, cells were plated into 96-well plates at 50,000 cells/well in phenol-red free DMEM containing 5% Lipid Reduced FCS and Pen/Strep. Six hours after plating, cells were treated with compounds for 24 hours. Media was removed and cells were lysed with 50 µL 1x Glo Lysis Buffer (Promega). Dual Glo Luciferase Reagent (50 µL/well) was then added and firefly luciferase luminescence was read on an Envision after a ten minute incubation. Finally, Stop and Glo reagent (50 µL/well) was added and renilla luciferase luminescence was read on an Envision after a ten minute incubation. To calculate the effect of compounds on RORγt activity, the ratio of firefly to renilla luciferase was determined and plotted against compound concentration. Agonist compounds increase RORγt-driven luciferase expression, and antagonist or inverse agonist compounds decrease luciferase expression.

[1] = molecular target: T2, human RORγt ligand binding domain (RORγt LBD) (Homo sapiens, UniProt P51449); assay: ThermoFluor® Assay (RORγt thermal shift binding); conditions: 0.065 mg/mL RORγt, 60 µM 1,8-ANS, pH 7.0; estimated from concentration response curves
T2 construct: His-tag (N); TurboTEV protease cleavage site (ENLYFQG) (N); made in house; host or cells: E. coli (pHIS1, modified pET vector)
T2 sequence (P51449 258-518): T1 sequence (P51449 258-518)
Description: This approach is applicable to a wide variety of systems, and rigorous in theoretical interpretation through quantitation of equilibrium binding constants (KD).
The shift in the melting point described as a ΔTm is proportional to the concentration and affinity of the ligand. The compound potency may be compared as a rank order of either ATm values at a single compound concentration or in terms of KD values, estimated from concentration response curves.
ThermoFluor® experiments were carried out using instruments owned by Janssen Research and Discovery, L.L.C. through its acquisition of 3-Dimensional Pharmaceuticals, Inc. 1,8-ANS (Invitrogen) was used as a fluorescent dye. Protein and compound solutions are dispensed into black 384-well polypropylene PCR microplates (Abgene) and overlayed with silicone oil (1 µL, Fluka, type DC 200) to prevent evaporation.
Bar-coded assay plates are robotically loaded onto a thermostatically controlled PCR-type thermal block and then heated at a typical ramp-rate of 1 °C/minute for all experiments. Fluorescence was measured by continuous illumination with UV light (Hamamatsu LC6) supplied via fiber optic and filtered through a band-pass filter (380-400 nm; >6 OD cutoff). Fluorescence emission of the entire 384-well plate was detected by measuring light intensity using a CCD camera (Sensys, Roper Scientific) filtered to detect 500 ± 25 nm, resulting in simultaneous and independent readings of all 384 wells. Images were collected at each temperature, and the sum of the pixel intensity in a given area of the assay plate was recorded versus temperature. Reference wells contained RORyt without compounds, and the assay conditions were as follows: • 0.065 mg/mL RORγt • 60 µM 1,8-ANS • 100 mM Hepes, pH 7.0 • 10 mM NaCl • 2.5 mM GSH • 0.002% Tween-20
Project compounds were arranged in a pre-dosed mother plate (Greiner Bio-one) wherein compounds are serially diluted in 100% DMSO by 1:2 from a high concentration of 10 mM over 12 columns within a series (column 12 is a reference well containing DMSO, no compound). The compounds were robotically dispensed directly into assay plates (1x = 46 nL) using a Hummingbird capillary liquid handling instrument (Digilab). Following compound dispense, protein and dye in buffer was added to achieve the final assay volume of 3 µL, followed by 1 µL of silicone oil.

## COc1nc2ccc(C(O)c3cnc(C)n3C)cc2c(Cl)c1Cc1ccc(F)cc1 (single isomer, unassigned) [Example 8c]
Human RORγt LBD; 6 µM compound, 6 µM
  RORγt (LBD) Reporter Assay, % inhibition @ 6 µM: 37%

## COc1nc2ccc(C(O)c3cncn3C)cc2c(Cl)c1Cc1ccc(C(F)(F)F)cc1 (single isomer, unassigned) [Example 18b, (4-Chloro-2-methoxy-3-(4-(trifluoromethyl)benzyl)quinolin-6-yl)(1-methyl-1H-imidazol-5-yl)methanol]
Human RORγt LBD; 6 µM compound
  inhibition at 6 µM: 98%
Human RORγt LBD
  pIC50: 6.29
[1]
  pKd: 6.54

## Cc1ncc(C(O)c2ccc3nc(N4CCC4)c(Cc4ccc(-n5cccn5)cc4)c(Cl)c3c2)n1C (single isomer, unassigned) [Example 21b, {2-Azetidin-1-yl-4-chloro-3-[4-(1H-pyrazol-1-yl)benzyl]quinolin-6-yl}(1,2-dimethyl-1H-imidazol-5-yl)methanol]
Human RORγt LBD; 6 µM compound
  inhibition at 6 µM: 88%
Human RORγt LBD
  pIC50: 6.16
[1]
  pKd: 6.59

## Cc1noc(C)c1C(O)c1ccc2nc(Cl)c(-c3ccccc3)c(Cl)c2c1 (centres unmarked) [Example 1, (2,4-Dichloro-3-phenylquinolin-6-yl)(3,5-dimethylisoxazol-4-yl)methanol]
Human RORγt LBD; 6 µM compound
  inhibition at 6 µM: 48%
Human RORγt LBD
  pIC50: < 5.22
[1]
  pKd: 6.26

## Cn1cncc1C(O)c1ccc2nc(Cl)c(-c3ccccc3)c(Cl)c2c1 (centres unmarked) [Example 2, (2,4-Dichloro-3-phenylquinolin-6-yl)(1-methyl-1H-imidazol-5-yl)methanol]
Human RORγt LBD; 6 µM compound
  inhibition at 6 µM: 12%
Human RORγt LBD
  pIC50: < 5.22
[1]
  pKd: 5.80

## Cn1cncc1C(O)c1ccc2nc(Cl)c(-c3ccccc3Cl)c(Cl)c2c1 (centres unmarked) [Example 3, (2,4-Dichloro-3-(2-chlorophenyl)quinolin-6-yl)(1-methyl-1H-imidazol-5-yl) methanol]
[1]
  pKd: 6.35

## Cc1cc(C(O)c2cncn2C)cc2c(Cl)c(-c3ccccc3)c(Cl)nc12 (centres unmarked) [Example 4, (2,4-Dichloro-8-methyl-3-phenylquinolin-6-yl)(1-methyl-1H-imidazol-5-yl)methanol•TFA]
Human RORγt LBD; 6 µM compound
  inhibition at 6 µM: -1%
Human RORγt LBD
  pIC50: < 5.22
[1]
  pKd: 5.31

## COc1nc2ccc(C(O)C3CCN(C(C)=O)CC3)cc2c(Cl)c1Cc1ccc(C(F)(F)F)cc1 (centres unmarked) [Example 6, (1-Acetylpiperidin4-yl){4-chloro-2-methoxy-3-[4-(trifluoromethyl)benzyl]quinolin-6-yl}methanol]
Human RORγt LBD; 6 µM compound
  inhibition at 6 µM: 95%
Human RORγt LBD
  pIC50: 6.10
[1]
  pKd: 6.66

## Cn1cncc1C(O)c1ccc2nc(Cl)c(Cc3ccc(-n4cccn4)cc3)c(Cl)c2c1 (centres unmarked) [Example 7, (3-(4-(1H-Pyrazol-1-y1)benzyl)-2,4-dichloroquinolin-6-yl)(1-methyl-1H-imidazol-5-yl)methanol]
Human RORγt LBD; 6 µM compound
  inhibition at 6 µM: 93%
Human RORγt LBD
  pIC50: ~5.70
[1]
  pKd: 6.32

## COc1nc2ccc(C(O)c3cnc(C)n3C)cc2c(Cl)c1Cc1ccc(F)cc1 (centres unmarked) [Example 8a]
Human RORγt LBD; 6 µM compound
  inhibition at 6 µM: 40%
[1]
  pKd: 6.74

## COc1nc2c(C)cc(C(O)c3cncn3C)cc2c(Cl)c1Cc1ccc(S(C)(=O)=O)cc1 (centres unmarked) [Example 10]
Human RORγt LBD; 6 µM compound
  inhibition at 6 µM: 59%
Human RORγt LBD
  pIC50: ~5.22
[1]
  pKd: 5.52

## COc1nc2c(C)cc(C(O)c3cncn3C)cc2c(Cl)c1Cc1cccc(C(F)(F)F)c1 (centres unmarked) [Example 11, (4-Chloro-2-methoxy-8-methyl-3-(3-(trifluoromethyl)benzyl)quinolin-6-yl)(1-methyl-1H-imidazol-5-yl)methanol]
Human RORγt LBD; 6 µM compound
  inhibition at 6 µM: 24%
Human RORγt LBD
  pIC50: < 5.22
[1]
  pKd: 6.82

## COc1nc2c(C)cc(C(O)c3cncn3C)cc2c(Cl)c1Cc1ccc(-n2cccn2)cc1 (centres unmarked) [Example 12, (3-(4-(1H-Pyrazol-1-yl)benzyl)-4-chloro-2-methoxy-8-methylquinolin-6-yl)(1-methyl-1H-imidazol-5-yl)methanole•TFA]
Human RORγt LBD; 6 µM compound
  inhibition at 6 µM: 92%
Human RORγt LBD
  pIC50: ~6.00
[1]
  pKd: 6.22

## Cc1ncc(C(O)c2ccc3nc(Cl)c(-c4ccccc4)c(Cl)c3c2)n1C (centres unmarked) [Example 13, (2,4-Dichloro-3-phenylquinolin-6-yl)(1,2-dimethyl-1H-imidazol-5-yl)methanol]
Human RORγt LBD; 6 µM compound
  inhibition at 6 µM: 43%
Human RORγt LBD
  pIC50: < 5.22
[1]
  pKd: 5.92

## COc1nc2ccc(C(O)c3ccc(C)nc3C)cc2c(Cl)c1Cc1ccc(C(F)(F)F)cc1 (centres unmarked) [Example 14a, (4-Chloro-2-methoxy-3-(4-(trifluoromethyl)benzyl)quinolin-6-yl)(2,6-dimethylpyridin-3-yl)methanol]
[1]
  pKd: 7.15

## COc1nc2ccc(C(O)c3cnc(C)n3C)cc2c(Cl)c1Cc1ccc(C(F)(F)F)cc1 (centres unmarked) [Example 15a, (4-Chloro-2-methoxy-3-(4-(trifluoromethyl)benzyl)quinolin-6-yl)(1,2-dimethyl-1H-imidazol-5-yl)methanol]
Human RORγt LBD; 6 µM compound
  inhibition at 6 µM: 101%
Human RORγt LBD
  pIC50: 7.37
[1]
  pKd: 7.13

## COc1nc2ccc(C(O)c3ccc(C)nc3C)cc2cc1Cc1ccc(C(F)(F)F)cc1 (centres unmarked) [Example 16, (2,6-Dimethylpyridin-3-yl)(2-methoxy-3-(4-(trifluoromethyl)benzyl)quinolin-6-yl)methanol]
Human RORγt LBD; 6 µM compound
  inhibition at 6 µM: 88%
Human RORγt LBD
  pIC50: 5.72
[1]
  pKd: 5.32

## COc1nc2ccc(C(O)c3cnnn3C)cc2c(Cl)c1Cc1ccc(C(F)(F)F)cc1 (centres unmarked) [Example 17a, (4-Chloro-2-methoxy-3-(4-(trifluoromethyl)benzyl)quinolin-6-yl)(1-methyl-1H-1,2,3-triazol-5-yl)methanol]
Human RORγt LBD; 6 µM compound
  inhibition at 6 µM: 99%
Human RORγt LBD
  pIC50: 6.51
[1]
  pKd: 7.19

## COc1nc2ccc(C(O)c3cncn3C)cc2c(Cl)c1Cc1ccc(C(F)(F)F)cc1 (centres unmarked) [Example 18a, (4-Chloro-2-methoxy-3-(4-(trifluoromethyl)benzyl)quinolin-6-yl)(1-methyl-1H-imidazol-5-yl)methanol]
Human RORγt LBD; 6 µM compound
  inhibition at 6 µM: 96%
Human RORγt LBD
  pIC50: 6.42
[1]
  pKd: 6.62

## COc1nc2ccc(C(O)c3oc(C)nc3C)cc2c(Cl)c1Cc1ccc(C(F)(F)F)cc1 (centres unmarked) [Example 19, (4-Chloro-2-methoxy-3-(4-(trifluoromethyl)benzyl)quinolin-6-yl)(2,4-dimethyloxazol-5-yl)methanol]
Human RORγt LBD; 6 µM compound
  inhibition at 6 µM: 79%
Human RORγt LBD
  pIC50: 6.62
[1]
  pKd: 6.46

## Cc1ncc(C(O)c2ccc3nc(N4CCC4)c(Cc4ccc(-n5cccn5)cc4)c(Cl)c3c2)n1C (centres unmarked) [Example 21a, {2-Azetidin-1-yl-4-chloro-3-[4-(1H-pyrazol-1-yl)benzyl]quinolin-6-yl)(1,2-dimethyl-1H-imidazol-5-yl)methanol]
Human RORγt LBD; 6 µM compound
  inhibition at 6 µM: 91%
Human RORγt LBD
  pIC50: 6.42
[1]
  pKd: 6.70

From EP3057949B1, “SECONDARY ALCOHOL QUINOLINYL MODULATORS OF ROR GAMMA T” (Janssen Pharmaceutica NV, priority 2013, dated 2015)
